In publication PMC8870237, “Improved Multimodal Tumor Necrosis Imaging with IRDye800CW-DOTA Conjugated to an Albumin-Binding Domain” (Cancers, 2022):

Legend:
[1] = In vivo stability (radio-HPLC of urine 1 h after injection); parameters: species or system mouse; conditions: mice, i.v., 1 h p.i.
From the text: After an hour, the mice were sacrificed by cervical dislocation and blood and urine were collected, which were frozen in liquid nitrogen directly after extraction. […] The supernatant was collected and analyzed by radio-HPLC (Method-D).

[2] = tested on: 4T1-Luc2 tumor-bearing mice; assay: Ex vivo biodistribution in 4T1-Luc2 tumor-bearing mice; parameters: species or system mouse; conditions: for Tumor to blood ratio / Tumor to muscle ratio: 4T1-Luc2 tumors; for Blood uptake / Bone marrow uptake / Bone uptake / Brain uptake / Colon uptake / Heart uptake / Kidneys uptake / Liver uptake / Lung uptake / Lymph nodes uptake / Muscle uptake / Pancreas uptake / Skin uptake / Small intestine uptake / Spleen uptake / 4T1-Luc2 Tumors uptake: ±SEM; for Blood uptake / Bone marrow uptake / Bone uptake / Brain uptake / Colon uptake / Heart uptake / Kidneys uptake / Liver uptake / Lung uptake / Lymph nodes uptake / Muscle uptake / Pancreas uptake / Skin uptake / Small intestine uptake / Spleen uptake: n = 4; for 4T1-Luc2 Tumors uptake: n = 8
Protocol: Female BALB/cAnNRj-nude mice (six to eight weeks old) were housed in ventilated cages in groups of four to six mice and were provided standard laboratory animal food pellets and water ad libitum. One week after arrival, tumor cells were injected bilaterally on the shoulders. Tumor growth was monitored three days per week with a caliper. All groups consisted of four mice with bilateral tumors.
The 4T1-Luc2 cells (1.0 × 10^5) suspended in 15 µL PBS were inoculated bilaterally in 16 mice in four groups of four animals each. […] First, FLI imaging was performed with a 730 nm excitation and 760 nm emission filter for 400 ms with 4 × 4 binning. Then, the mice received an intraperitoneal injection of D-luciferin (150 mg/kg) maintaining the position of the mice in the bed unaltered, and BLI imaging was performed with an open filter for 400 ms with 4 × 4 binning. Full body (head to tail base) SPECT images of the 5 cm axial field of view were obtained over a total scan time of 30 min, followed by a 2 min full-body CT. After imaging, the mice were euthanized for ex vivo analysis.
After the final imaging experiments, the mice were sacrificed by cervical dislocation, tumors and organs were collected, weighted, and activity was accurately quantified by γ-counting to determine radioactivity uptake in the percentage of injected dose per gram (%ID/g). After γ-counting, the tumors were frozen in liquid nitrogen and stored at −80 °C overnight. Adjacent cryosections (10 µm) were prepared of the tumor centers for autoradiography. The sections were stored at −20 °C for the radioactivity to decay, before 800 nm fluorescence imaging and histochemical dead cell staining.

CC1(C)C(=CC=C2CCCC(C=CC3=[N+](CCCCCC(=O)NCCCC[C@H](NC(=O)CCCc4ccc(I)cc4)C(=O)NCc4ccc(CNC(=O)CN5CCN(CC(=O)[O-])CCN(CC(=O)[O-])CCN(CC(=O)[O-])CC5)cc4)c4ccc(S(=O)(=O)O)cc4C3(C)C)=C2Oc2ccc(S(=O)(=O)O)cc2)N(CCCCS(=O)(=O)O)c2ccc(S(=O)(=O)O)cc21.[111In+3] [[^111In]3]
in vivo stability, remained stable [1]: > 95%
excretion route ([2]; 4T1-Luc2 tumor-bearing mice, from biodistribution): predominately excreted via the renal tract
blood half-life ([2]; 4T1-Luc2 tumor-bearing mice, i.v.): 9 h
Tumor to blood ratio ([2]; 6 h p.i.): 0.91±0.05
Tumor to muscle ratio ([2]; 6 h p.i.): 3.19±0.43
Blood uptake ([2]; 6 h p.i., i.v.): 4.34±0.22 %ID/g
Bone marrow uptake ([2]; 6 h p.i., i.v.): 1.42±0.87 %ID/g
Bone uptake ([2]; 6 h p.i., i.v.): 1.63±0.16 %ID/g
Brain uptake ([2]; 6 h p.i., i.v.): 0.14±0.03 %ID/g
Colon uptake ([2]; 6 h p.i., i.v.): 1.60±0.13 %ID/g
Heart uptake ([2]; 6 h p.i., i.v.): 2.32±0.11 %ID/g
Kidneys uptake ([2]; 6 h p.i., i.v.): 6.04±1.13 %ID/g
Liver uptake ([2]; 6 h p.i., i.v.): 2.24±0.28 %ID/g
Lung uptake ([2]; 6 h p.i., i.v.): 3.29±0.25 %ID/g
Lymph nodes uptake ([2]; 6 h p.i., i.v.): 3.91±0.97 %ID/g
Muscle uptake ([2]; 6 h p.i., i.v.): 1.31±0.20 %ID/g
Pancreas uptake ([2]; 6 h p.i., i.v.): 1.33±0.13 %ID/g
Skin uptake ([2]; 6 h p.i., i.v.): 2.59±0.09 %ID/g
Small intestine uptake ([2]; 6 h p.i., i.v.): 0.93±0.07 %ID/g
Spleen uptake ([2]; 6 h p.i., i.v.): 1.87±0.18 %ID/g
4T1-Luc2 Tumors uptake ([2]; 6 h p.i., i.v.): 3.94±0.19 %ID/g
Tumor to blood ratio ([2]; 24 h p.i.): 2.50 ± 0.20
Tumor to muscle ratio ([2]; 24 h p.i.): 7.26±0.89
Blood uptake ([2]; 24 h p.i., i.v.): 1.31±0.05 %ID/g
Bone uptake ([2]; 24 h p.i., i.v.): 0.93±0.13 %ID/g
Brain uptake ([2]; 24 h p.i., i.v.): 0.07±0.00 %ID/g
Colon uptake ([2]; 24 h p.i., i.v.): 0.70±0.07 %ID/g
Heart uptake ([2]; 24 h p.i., i.v.): 1.22±0.06 %ID/g
Liver uptake ([2]; 24 h p.i., i.v.): 1.20±0.01 %ID/g
Lung uptake ([2]; 24 h p.i., i.v.): 1.20±0.04 %ID/g
Lymph nodes uptake ([2]; 24 h p.i., i.v.): 2.42±0.18 %ID/g
Muscle uptake ([2]; 24 h p.i., i.v.): 0.46±0.03 %ID/g
Pancreas uptake ([2]; 24 h p.i., i.v.): 0.65±0.05 %ID/g
Skin uptake ([2]; 24 h p.i., i.v.): 1.83±0.29 %ID/g
Small intestine uptake ([2]; 24 h p.i., i.v.): 0.53±0.05 %ID/g
Spleen uptake ([2]; 24 h p.i., i.v.): 1.45±0.03 %ID/g
4T1-Luc2 Tumors uptake ([2]; 24 h p.i., i.v.): 3.27±0.25 %ID/g
Tumor to blood ratio ([2]; 48 h p.i.): 4.54±0.45
Tumor to muscle ratio ([2]; 48 h p.i.): 7.27±0.34
Blood uptake ([2]; 48 h p.i., i.v.): 0.58±0.01 %ID/g
Bone uptake ([2]; 48 h p.i., i.v.): 0.74±0.04 %ID/g
Brain uptake ([2]; 48 h p.i., i.v.): 0.04±0.00 %ID/g
Colon uptake ([2]; 48 h p.i., i.v.): 0.37±0.02 %ID/g
Heart uptake ([2]; 48 h p.i., i.v.): 0.78±0.01 %ID/g
Kidneys uptake ([2]; 48 h p.i., i.v.): 8.31±0.96 %ID/g
Liver uptake ([2]; 48 h p.i., i.v.): 0.90±0.04 %ID/g
Lung uptake ([2]; 48 h p.i., i.v.): 0.76±0.03 %ID/g
Lymph nodes uptake ([2]; 48 h p.i., i.v.): 3.30±0.62 %ID/g
Muscle uptake ([2]; 48 h p.i., i.v.): 0.36±0.03 %ID/g
Pancreas uptake ([2]; 48 h p.i., i.v.): 0.48±0.04 %ID/g
Skin uptake ([2]; 48 h p.i., i.v.): 1.46±0.03 %ID/g
Small intestine uptake ([2]; 48 h p.i., i.v.): 0.33±0.01 %ID/g
Spleen uptake ([2]; 48 h p.i., i.v.): 1.19±0.07 %ID/g
4T1-Luc2 Tumors uptake ([2]; 48 h p.i., i.v.): 2.62±0.23 %ID/g
Tumor to blood ratio ([2]; 72 h p.i.): 7.36±0.93
Tumor to muscle ratio ([2]; 72 h p.i.): 9.10±1.58
Blood uptake ([2]; 72 h p.i., i.v.): 0.31±0.03 %ID/g
Bone marrow uptake ([2]; 72 h p.i., i.v.): 2.25±0.65 %ID/g
Bone uptake ([2]; 72 h p.i., i.v.): 0.51±0.05 %ID/g
Brain uptake ([2]; 72 h p.i., i.v.): 0.03±0.00 %ID/g
Colon uptake ([2]; 72 h p.i., i.v.): 0.23±0.02 %ID/g
Heart uptake ([2]; 72 h p.i., i.v.): 0.63±0.02 %ID/g
Kidneys uptake ([2]; 72 h p.i., i.v.): 5.72±0.49 %ID/g
Liver uptake ([2]; 72 h p.i., i.v.): 0.83±0.04 %ID/g
Lung uptake ([2]; 72 h p.i., i.v.): 0.56±0.05 %ID/g
Lymph nodes uptake ([2]; 72 h p.i., i.v.): 2.39±0.25 %ID/g
Muscle uptake ([2]; 72 h p.i., i.v.): 0.26±0.03 %ID/g
Pancreas uptake ([2]; 72 h p.i., i.v.): 0.32±0.02 %ID/g
Skin uptake ([2]; 72 h p.i., i.v.): 1.52±0.09 %ID/g
Small intestine uptake ([2]; 72 h p.i., i.v.): 0.20±0.02 %ID/g
Spleen uptake ([2]; 72 h p.i., i.v.): 1.10±0.18 %ID/g
4T1-Luc2 Tumors uptake ([2]; 72 h p.i., i.v.): 2.25±0.64 %ID/g
ex vivo colocalization with dead cells (autoradiography, NIR fluorescence, TUNEL) ([2]; adjacent sections of 4T1-Luc2 tumors): specific binding of the tracer to necrotic tumor regions
